In test [1] the test system is Mycobacterium tuberculosis. Put plainly: Antitubercular activity against Mycobacterium tuberculosis H37Rv after 4 days by microplate alamar blue assay. The test is classed as functional. The conditions noted are these: 96 h. Background: The colour change of resazurin is a common sign of viable cells or microbes.
The subject of test [2] is Mycobacterium tuberculosis. Description: Antitubercular activity against Mycobacterium tuberculosis H37Rv by low oxygen recovery assay. The test is classed as functional.

The source of these data is ChEMBL document CHEMBL1141707, “Modification of the side chain of micromolide, an anti-tuberculosis natural product” (2008).

The term MIC denotes the smallest concentration in the dilution series that meets the test's criterion for growth inhibition. Read a high MIC as a less susceptible organism.

The structures appear in SMILES notation. Values after ≈ are worked out from the molar mass of the structure shown.

In test [1], `O=C1CCC(CCCCC2CC(C(=O)NCc3ccccc3)=NO2)O1` (configuration not stated) showed an MIC of over 128 µM.
In the case of `CCCCCCCCNC(=O)CCCCC1CCC(=O)O1` (configuration not stated), the MIC in test [1] is over 128 µM.
Same read-out and setting: the value for `CCCCCCC/C=C\CCCCC1CCC(=O)O1` (configuration not stated) was 14.7 µM; that for `CCCCCCCCC#CCCCCC1CCC(=O)O1` (configuration not stated) was 44 µM.
Same read-out and setting: the value for `CCCCCCCC/C=C\CCCC[C@@H]1CCC(=O)O1` was 1.5 µg/mL.
`CCCCCCCCCCCCCCC1CCC(=O)O1` (configuration not stated): the MIC in test [2] and in test [1] was over 128 µM each time.
Compound `CCCCCCOC(=O)C1=NOC(CCCCC2CCC(=O)O2)C1` (configuration not stated) displayed an MIC in test [1] of 63.1 µM.
Same read-out and setting: in the case of `CCCCCCCC(=O)NCCCCC1CCC(=O)O1` (configuration not stated) it was over 128 µM.
Still for that read-out and setting: in the case of `CCCCCCCC/C=C/CCCCC1CCC(=O)O1` (configuration not stated) it was 19.7 µM; in that of `CCCCCCCc1cc(CCCCC2CCC(=O)O2)on1` (configuration not stated), 63.4 µM.
Still for that read-out and setting: the value for `CCOC(=O)c1cc(CCCCC2CCC(=O)O2)on1` (configuration not stated) was over 128 µM.
`CCN(CC)C(=O)C1=NOC(CCCCC2CCC(=O)O2)C1` (configuration not stated) had a minimal inhibitory concentration (MIC) in test [1] of over 128 µM.
Same read-out and setting: the value for `CC(C)(C)OC(=O)C1=NOC(CCCCC2CCC(=O)O2)C1` (configuration not stated) was over 128 µM; that for `CCCCCCC1=NOC(CCCCC2CCC(=O)O2)C1` (configuration not stated) was over 128 µM; that for `CCCCCCCC1=NOC(CCCCC2CCC(=O)O2)C1` (configuration not stated) was over 128 µM.
For `CCCCCCC1=NOC(CCCC2CCC(=O)O2)C1` (configuration not stated), the MIC in test [1] is over 128 µM.
Same read-out and setting: the value for `CCCCCCCC1=NOC(CCCC2CCC(=O)O2)C1` (configuration not stated) was over 128 µM; that for `O=C1CCC(CCCCC2CC(C(=O)O)=NO2)O1` (configuration not stated) was over 128 µM.
In turn, `CCOC(=O)C1=NOC(CCCCC2CCC(=O)O2)C1` (configuration not stated) returned an MIC in test [1] of over 128 µM.
`CCCCCCCCC(=O)NCCCCC1CCC(=O)O1` (configuration not stated) came in with an MIC in test [1] of over 128 µM.
The same measure, in the same setting: in the case of `CCCCCCNC(=O)C1=NOC(CCCCC2CCC(=O)O2)C1` (configuration not stated) it was over 128 µM.
On the same count and under the same terms, in the case of `CCCCCCCC#CCCCCC1CCC(=O)O1` (configuration not stated) it was 70.2 µM; in that of `CCCCCCNC(=O)c1cc(CCCCC2CCC(=O)O2)on1` (configuration not stated), over 128 µM; in that of `O=C1CCC(CCCCC2CC(C(=O)OCc3ccccc3)=NO2)O1` (configuration not stated), over 128 µM.
`CCCCCCCC/C=C\CCCCC1CCC(=O)O1` (racemic): the MIC was 124 µM (≈ 34.8 µg/mL) in test [2] and 6.9 µM in test [1].
